We go through one sequence from article PMC9792601, “Conformational switch and multiple supramolecular structures of a newly identified self-assembling protein-mimetic peptide from Pseudomonas aeruginosa YeaZ protein” (Frontiers in Chemistry, 2022).

Data set [1] is described as follows: Dynamic Light Scattering of aggregates. In kind it is physicochemical. Particulars: 25°C, aged 24 h. On the procedure: Malvern Zetasizer Nano instrument (Malvern Panalytical, Ltd.) was employed for Dynamic Light Scattering (DLS) analysis, performed at 25°C. The instrument is equipped with a 633 nm […] He–Ne laser at a scattering angle of 173°. All the samples used to analyze the stability of the PMP-2 aggregates as a function of different DMSO/water ratio were prepared by solvent displacement technique starting from concentrated solutions in 100% DMSO (0.125, 0.2, 0.5, 2, 4, and 10 mM) to obtain 0.1 mM final concentrations in Milli-Q water, with 80%, 50%, 20%, 10%, 5%, 2.5% and 1% v/v of DMSO, respectively. All the samples used to analyze the stability of the PMP-2 aggregates as a function of concentration were prepared starting from 0.1 mM in Milli-Q water with 5% v/v of DMSO and diluting with Milli-Q water to obtain the final concentration of 0.05, 0.01, 0.005, and 0.001 mM. The corresponding refractive index and viscosity data of DMSO/water mixtures are reported in the literature ([LeBel and Goring, 1962]) and the samples were aged 24 h at room temperature before the measurements.

For data set [2] the following is noted: 20 mM hydrogel in Milli-Q water, room temperature, 10 months.
Experimental: To prepare the hydrogels at different concentration, the lyophilized PMP-2 was dissolved in the suitable amount of Milli-Q water (final concentration of the prepared solutions: 0.1, 1, 2, 5, 10, and 20 mM) heating at 60°C for 3 min and sonicating for 1 min. The clear solutions were left cooling at rt.
5 Preparation of the PMP-2-based hydrogels
PMP-2 was dissolved in the suitable amount of milliQ water (final concentration of the prepared
solutions: 0.1 mM, 1 mM, 2 mM, 5 mM, 10 mM and 20 mM) heating at 60 °C for 3 minutes and
sonicating for 1 min. The clear solutions were left cooling at rt.
The 20 mM hydrogel was kept at room
A short description of data set [3]: Solubility observations in solvents. The format is physicochemical.

Ends that are not written are not given here.

For the sequence AIAIGVVQGLAFALGGKKKG [PMP-2], the DLS aggregate stability entry is “presence of stable aggregates” in data set [1] (0.1 mM, 5, 2.5 and 1% v/v DMSO/water); “formation of some stable aggregates” in data set [1] (0.1 mM, 20% and 10% DMSO in water); “very poor scattering power” in data set [1] (0.1 mM, 100, 80 and 50% v/v DMSO/water). Further, in data set [2], the “stability of hydrogel on storage” value is “complete stability”. In data set [3] (DMSO), the “highest reachable concentration in DMSO” value amounted to 20 mM. The solubility in water result in data set [3] (water, room temperature) is recorded as “low solubility at room temperature”.
